Consider 24 molecules from patent US20050020576A1, “Kappa agonist compounds and pharmaceutical formulations thereof” (priority 1996, published 2005).

The target of assay [1] is T1, cloned human kappa receptor (Homo sapiens, UniProt P41145). The experiment in a line: biochemical. The format is binding. More on the design: (3H)-Diprenorphin, % / k [3H] Diprenorphin, %: dose or concentration left out as unconfirmed. As to conditions: for inhibition at 1 µM: read-out: 3H-Diprenorphin, % @ 1 uM.
The target in assay [2] is T1, cloned human kappa receptor. The experiment in a line: [3H]U69593 (agonist) binding to the cloned human kappa receptor.
Assay [3] deals with formalin-induced flinching. Description: animal or person. Particulars: rat, in vivo. The class given is in vivo, male Sprague-Dawley rats.
[4] abbreviates: Table I, read-out: Ki, nM 3H-Diprenorphin.

Structures are written as SMILES. Where “and” joins values, the source holds several entries; their conditions need not be identical. Equal entries are not always repeated. Structures can show the parent of a compound that is named as a salt.

T1 sequence (P41145 whole entry): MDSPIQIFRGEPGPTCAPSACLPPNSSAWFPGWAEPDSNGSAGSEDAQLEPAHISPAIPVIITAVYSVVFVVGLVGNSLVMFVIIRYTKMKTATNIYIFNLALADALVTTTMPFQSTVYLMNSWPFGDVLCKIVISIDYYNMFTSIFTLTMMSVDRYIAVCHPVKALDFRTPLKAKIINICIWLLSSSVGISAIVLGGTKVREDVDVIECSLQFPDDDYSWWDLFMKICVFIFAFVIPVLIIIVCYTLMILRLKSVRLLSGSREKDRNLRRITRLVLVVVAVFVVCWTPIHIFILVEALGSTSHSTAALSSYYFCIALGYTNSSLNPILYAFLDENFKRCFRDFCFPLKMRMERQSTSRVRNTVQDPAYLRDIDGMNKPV

The Ki is the equilibrium dissociation constant of an inhibitor or competing ligand from its target. For `CS(=O)(=O)N1CCN(C(=O)Cc2ccc(C(F)(F)F)cc2)C(CN2CCCC2)C1` (racemic) [(R,S-8d), (R,S)-4-Methanesulfonyl-1-[(4-trifluoromethylphenyl)acetyl]-2-[(1-pyrrolidinyl)-methyl]piperazine hydrochloride], the Ki in assay [1] (Ki, nM 3H-Diprenorphin) was 16 nM and 17 nM; in assay [2] (Ki, nM 3H-U-69,593), 1.3 nM and 1.9 nM. Besides, the “Late Phase Formalin, % @ 300; i.paw” value in assay [3] was found to be 97% @ 300.
With `COC(=O)N1CCN(C(=O)Cc2ccccc2[N+](=O)[O-])C(CN2CCCC2)C1` (racemic) [(R,S-9d), (R,S)-Methyl 4-[(2-nitrophenyl)acetyl]-3-[(1-Pyrrolidinyl)-methyl]-1-piperazine-carboxylate hydrochloride], the Ki in assay [1] (Ki, nM 3H-Diprenorphin) was 37 nM; in assay [2] (Ki, nM 3H-U-69,593) it was 0.74 nM and 0.73 nM. In addition, the “Late Phase Formalin, % @ 300; i.paw” value in assay [3] came to 93% @ 300.
On to `CC(=O)N1CCN(C(=O)Cc2ccc(S(C)(=O)=O)cc2)C(CN2CCCC2)C1` (racemic) [(R,S-10a), hydrochloride], for which the inhibition at 1 µM in assay [1] came out at 27%. Affinity in assay [2] (Ki, nM 3H-U-69,593) was put at a Ki of 2.3 nM. Also, in assay [3], the “Late Phase Formalin, % @ 300; i.paw” value is given as 6% @ 300.
In the case of `CCOC(=O)CN(CC(=O)OCC)c1ccc2c(c1)[C@H](N(C)C(=O)Cc1ccc(Cl)c(Cl)c1)[C@@H](N1CCCC1)CC2` (racemic) [II-10], the Ki in assay [1] (Ki (nM) k [3H] Diprenorphin) worked out at 4.6 nM; in assay [2] (Ki (nM) k (mg) [3H]U69,593) it was 0.68 nM. The “Late Phase Formalin, % A @ 300” value in assay [3] stood at 37% A @ 300.
Turning to `CS(=O)(=O)N1CCN(C(=O)Cc2ccccc2[N+](=O)[O-])[C@H](CN2CCCC2)C1.Cl` (racemic) [(R,S-8c), (R,S)-4-Methanesulfonyl-1-[(2-nitrophenyl)acetyl]-2-[(1-pyrrolidinyl)-methyl]piperazine hydrochloride], in assay [1], the “3H-Diprenorphin, % @ 1 uM” value was determined as 15% @ 1 uM. In addition, in assay [2], the “3H-U-69,593, % @ 1 uM” value came to 51% @ 1 uM.
For the molecule `COC(=O)N1CCN(C(=O)Cc2ccc(S(C)(=O)=O)cc2)C(CN2CCCC2)C1` (racemic) [(R,S-9a), (R,S)-Methyl 4-[(4-methylsulfonylphenyl)acetyl]-3-[(1-pyrrolidinyl)-methyl]-1-piperazinecarboxylate hydrochloride], the Ki in assay [1] (Ki, nM 3H-Diprenorphin) was 11 nM; in assay [2] (Ki, nM 3H-U-69,593) it was 0.37 nM and 0.42 nM. The “Late Phase Formalin, % @ 300; i.paw” value in assay [3] is 46% @ 300.
For `CN(C(=O)Cc1ccc(Cl)c(Cl)c1)[C@H]1c2cc(N(CC(=O)OC(C)(C)C)CC(=O)OC(C)(C)C)ccc2CC[C@@H]1N1CCCC1` (racemic) [II-11], the values for the Ki in assay [1] (Ki (nM) k [3H] Diprenorphin) and in assay [2] (Ki (nM) k (mg) [3H]U69,593) were 7.4 nM and 2.8 nM, respectively.
In the case of `COC(=O)N1CCN(C(=O)Cc2ccc(Cl)c(Cl)c2)C(CN2CCCC2)C1` (centres unmarked) [GR 89696, reference compound], the Ki is 0.095 nM and 0.1 nM in assay [1] (Ki, nM 3H-Diprenorphin); 1.6 nM and 1.5 nM in assay [2] (Ki, nM 3H-U-69,593). Moreover, the “Late Phase Formalin A50 (mg); i.paw” value in assay [3] is listed as 0.35(0.20-0.62) mg.
For `CC(=O)N1CCN(C(=O)Cc2cccc([N+](=O)[O-])c2)C(CN2CCCC2)C1` (racemic) [(R,S-10d), (R,S)-4-Acetyl-1-[(3-nitrophenyl)acetyl]-3-[(1-pyrrolidinyl)-methyl]piperazine-carboxylate hydrochloride], in assay [1], the inhibition at 1 µM was 94%. Also, in assay [2] (Ki, nM 3H-U-69,593), the affinity corresponds to a Ki of 0.72 nM.
For the molecule `Cc1ccc(S(=O)(=O)N2CCN(C(=O)Cc3ccc(Cl)c(Cl)c3)[C@H](CN3CCCC3)C2)cc1` [(R-3l), (R)-4-(4-Methyphenylsulfonyl)-1-[(3,4-dichlorophenyl)acetyl]-2-[(1-Pyrrolidinyl)methyl]-piperazine hydrochloride], the Ki in assay [1] (setting [4]) was 120 nM; in assay [2] (Ki, nM 3H-U-69,593), 6.2 nM. Also, the “Late Phase Formalin, % @ 300; i.paw” value in assay [3] is 24% @ 300.
For `CCOP(=O)(CCNc1ccc2c(c1)[C@H](N(C)C(=O)Cc1ccc(Cl)c(Cl)c1)[C@@H](N1CCCC1)CC2)OCC` (racemic) [II-13], the Ki in assay [1] (Ki (nM) k [3H] Diprenorphin) amounted to 6.2 nM; in assay [2] (Ki (nM) k (mg) [3H]U69,593), 2.2 nM.
Regarding `CS(=O)(=O)N1CCN(C(=O)Cc2c[nH]c3ccccc23)C(CN2CCCC2)C1` (racemic) [(R,S-8e), (R,S)-4-Methanesulfonyl-1-[(3-indolylacetyl-2-[(1-pyrrolidinyl)-methyl]piperazine hydrochloride], in assay [1], the inhibition at 1 µM is 74%. In addition, in assay [2] (Ki, nM 3H-U-69,593), the Ki is 5.3 nM and 3.2 nM.
Take `O=C(Cc1ccc(C(F)(F)F)cc1)N1CCN(Cc2ccccc2)CC1CN1CCCC1` (centres unmarked) [(R.S-11)]: the Ki in assay [1] (Ki, nM 3H-Diprenorphin) was 2.2 nM and 2.4 nM; in assay [2] (Ki, nM 3H-U-69,593) it was 0.39 nM and 0.57 nM. In addition, the “Late Phase Formalin, % @ 300; i.paw” value in assay [3] turned out to be 92% @ 300.
`CN(C(=O)Cc1ccc(C(F)(F)F)cc1N(S(C)(=O)=O)S(C)(=O)=O)C1CCCCC1N1CCCC1.Cl` (racemic) [Example 5j, (±)-trans-2-Bismethanesulfonamido-4-trifluoromethyl-N-methyl-N-[2-(1-pyrrolidinyl)cyclohexyl]-phenylacetamide Hydrochloride]: the “% @ 1 μM, diprenorphine” value in assay [1] came to 13% @ 1 μM. Moreover, the “% @ 1 μM, U-69593” value in assay [2] is 48% @1 μM.
For `COc1ccc2c(c1)[C@H](N(C)C(=O)C(c1ccccc1)c1ccccc1)[C@@H](N1CCCC1)CC2` (racemic) [II-2], the Ki turned out to be 142 nM in assay [1] (Ki (nM) k [3H] Diprenorphin) and 20 nM in assay [2] (Ki (nM) k (mg) [3H]U69,593).
Consider `CC(=O)N1CCN(C(=O)Cc2ccc([N+](=O)[O-])cc2)C(CN2CCCC2)C1` (racemic) [(R,S-10f), hydrochloride], for which the inhibition at 1 µM in assay [1] was determined as 59%. Besides, in assay [2] (Ki, nM 3H-U-69,593), the Ki was found to be 2.4 nM.
Turning to `CN(C(=O)Cc1ccc(Cl)c(Cl)c1)[C@H]1c2cc(N(CC(=O)O)CC(=O)O)ccc2CC[C@@H]1N1CCCC1` (racemic) [II-12], the Ki in assay [1] (Ki (nM) k [3H] Diprenorphin) was found to be 3.8 nM; in assay [2] (Ki (nM) k (mg) [3H]U69,593), 0.68 nM.
On to `COc1cc2c(cc1S(=O)(=O)N(C)Cc1ccccc1)[C@H](N(C)C(=O)Cc1ccc(Cl)c(Cl)c1)[C@@H](N1CCCC1)CC2` (racemic) [II-15], for which the Ki in assay [1] (Ki (nM) k [3H] Diprenorphin) came to 48 nM; in assay [2] (Ki (nM) k (mg) [3H]U69,593), 8 nM.
For the molecule `CC(=O)N1CCN(C(=O)Cc2ccccc2[N+](=O)[O-])C(CN2CCCC2)C1` (racemic) [(R,S-10e), (R,S)-4-Acetyl-1-[(2-nitrophenyl)acetyl]-3-[(1-pyrrolidinyl)-methyl]piperazine-carboxylate hydrochloride], the Ki in assay [1] (setting [4]) was 541 nM; in assay [2] (Ki, nM 3H-U-69,593) it was 24 nM.
For the molecule `CC(=O)N1CCN(C(=O)Cc2ccccc2C(F)(F)F)C(CN2CCCC2)C1` (racemic) [(R,S-10c), (R,S)-4-Acetyl-1-[(2-trifluoromethylphenyl)acetyl]-3-[(1-pyrrolidinyl)-methyl]piperazinecarboxylate hydrochloride], in assay [1], the inhibition at 1 µM is 45%. This molecule gave a Ki in assay [2] (Ki, nM 3H-U-69,593) of 16 nM.
On to `CN(C(=O)C(c1ccccc1)c1ccccc1)[C@H]1c2cc(O)ccc2CC[C@@H]1N1CCCC1` (racemic) [II-4], for which the Ki in assay [1] (Table II, read-out: Ki (nM) k [3H] Diprenorphin) came out at 549 nM; in assay [2] (Table II, read-out: Ki (nM) k (mg) [3H]U69,593), 432 nM.
Turning to `CCOP(=O)(Nc1ccc2c(c1)[C@H](N(C)C(=O)Cc1ccc(Cl)c(Cl)c1)[C@@H](N1CCCC1)CC2)OCC` (racemic) [II-14], the results for the Ki in assay [1] (Ki (nM) k [3H] Diprenorphin) and in assay [2] (Ki (nM) k (mg) [3H]U69,593) were 2.4 nM and 0.6 nM, respectively.
For `CN(C(=O)C(c1ccccc1)c1ccccc1)C1CCCCC1N1CCCC1` (racemic) [Example 5s, (±)-trans-N-Methyl-N-[2-(1-pyrrolidinyl)cyclohexyl]2,2-dphenylacetamide Hydrochloride], the Ki in assay [1] (Ki(nM) diprenorphine) came to 1170 nM; in assay [2] (Ki(nM) U-69593) it was 330 nM.
As for `CN(C(=O)C(c1ccccc1)c1ccccc1)[C@H]1c2ccccc2C[C@@H]1N1CCCC1` (racemic) [II-20], the “k [3H] Diprenorphin, %” value in assay [1] stood at 29% @ 1 mM. Further, affinity in assay [2] was put at a Ki of 146 nM.
